Laboratory results reported in patent publication US20190382850A1, “METHOD FOR IDENTIFYING MITOCHONDRIAL DNA IN EXTRACELLULAR VESICLES AND TREATMENT OF MTDNA-RELATED DISORDERS AND CANCER” (Memorial Sloan-Kettering Cancer Center, priority 2017, published 2019).

What was measured:
[1] = test system: HTR tumor-derived cells; assay: OXPHOS potential (Seahorse) in FACS sorted tumor-derived cancer cells ± HT; assay type: cell-based, human; conditions: fulvestrant 10 μM, FIG. 2b
Text: (§1) (Panel a) Representative tumor growth kinetics (BLI) of GFP+/Luciferase+MCF7 xenografts (n=10) treated with weekly fulvestrant once mammary fat pad tumors were established (after 3 months) which led to a period (4 months) of disease stability on HT (HTS) followed by exponential growth on HT (HTR). Representative H&E images of tumors and primary cultures from unsorted as well as FACS purified cancer cells (GFP+/Epcam+) and murine CAFs (GFP−/Epcam). Scale bar 20 μm. (Panel b) OXPHOS potential in tumor-derived cancer cells (panel a) was measured±HT (fulvestrant, 10 μM) by Seahorse. […] (Panel d) Percentage of metastatic lesions isolated by FACS from tumor-bearing mice (n=8/group) expressing murine mtDNA as determined by ND1 qPCR (2 ng of total DNA). Oxygen consumption rates (OCR) in murine-mtDNApos and ctrl HTR cells determined by Seahorse. (Panel e) Murine mitochondrial RNA expression (12 genes: ND1, ND2, COX2, ATP8, ATP6, COX3, ND3, ND4L, ND4, ND5, ND6, CytB) as fold change (logioscale) determined by qRT-PCR in HTR and HTS cells (panel a). […]
(§2) Mitochondrial respiration and OXPHOS potential in cells was assessed using Seahorse technology (www.seahorsebio.com)(Qian, W. & Van Houten, B. Alterations in bioenergetics due to changes in mitochondrial DNA copy number. Methods 51, 452-457 (2010)). […]

[2] = test system: HTS cells; assay: as above; assay type: cell-based, human; conditions: fulvestrant 10 μM, FIG. 2b
Text: as §1, §2

[3] = test system: MCF7 xenografts; assay: Tumor growth (BLI) of MCF7 mammary fat pad xenografts treated with HT; assay type: in vivo, mice; conditions: weekly fulvestrant, FIG. 2a
Text: (Panel a) Representative tumor growth kinetics (BLI) of GFP+/Luciferase+MCF7 xenografts (n=10) treated with weekly fulvestrant once mammary fat pad tumors were established (after 3 months) which led to a period (4 months) of disease stability on HT (HTS) followed by exponential growth on HT (HTR). Representative H&E images of tumors and primary cultures from unsorted as well as FACS purified cancer cells (GFP+/Epcam+) and murine CAFs (GFP−/Epcam). Scale bar 20 μm. (Panel b) OXPHOS potential in tumor-derived cancer cells (panel a) was measured±HT (fulvestrant, 10 μM) by Seahorse. (Panel c) mtDNA/nDNA (human and murine) level as Fold change (log10scale) in cancer cells and mCAFs isolated from HTS and HTR disease (panel a). (Panel d) Percentage of metastatic lesions isolated by FACS from tumor-bearing mice (n=8/group) expressing murine mtDNA as determined by ND1 qPCR (2 ng of total DNA). Oxygen consumption rates (OCR) in murine-mtDNApos and ctrl HTR cells determined by Seahorse. (Panel e) Murine mitochondrial RNA expression (12 genes: ND1, ND2, COX2, ATP8, ATP6, COX3, ND3, ND4L, ND4, ND5, ND6, CytB) as fold change (logioscale) determined by qRT-PCR in HTR and HTS cells (panel a). […]
All cancer cell lines were engineered to express a GFP positive luciferase expression vector for in vitro and in vivo imaging studies. […] EV-number was determined by Nanosight. […]

C[C@]12CC[C@@H]3c4ccc(O)cc4C[C@@H](CCCCCCCCC[S+]([O-])CCCC(F)(F)C(F)(F)F)[C@H]3[C@@H]1CC[C@@H]2O (stereo partly drawn) [fulvestrant]
OXPHOS capacity of HTR tumor-derived cells [1]: unaffected
OXPHOS potential of HTS cells [2]: inhibited
growth pattern of tumors in tumor-bearing mice treated with HT [3]: no growth for 4 months (HTS) followed by exponential growth (HTR)
